The values that follow come from patent publication US7084158B2, “Substituted propargylamines” (Bayer Cropscience S.A., priority 2001, dated 2006).

SMILES strings stand for the structures.

Assay type in all cases: in vivo
Design in all cases: key: compounds were considered to be active when, at a concentration of 500 ppm or less, they had an activity on the harmful organisms of 50% or more

For assay [1], the system named is Meloidogyne incognita. In words: Example H: root gall nematode larvae immobilization (contact activity). Conditions: 500 ppm or less; 2nd stage larvae; 6 days permanent exposure. Here is the method: In a glass vessel, an aqueous solution of the formulated compound to be examined was added to about 3000 freshly hatched active (mobile) larvae (2nd development stage) of the root gall nematode (Meloidogyne incognita) (final volume 20 ml). After 6 days of permanent exposure of the nematode larvae, the percentage of the individual larvae immobilized by the activity of the compound was determined in comparison to the untreated controls (contact activity). The compounds of the following examples were active: 39, 52, 159, 161, 162, 163, 164, 165, 1045, 1046, 1047, 179, 183, 187, 1048, 298, 206, 208, 227, 230, 1061, 237, 238, 245, 250, 255, 256, 260, 268, 269, 274, 275, 288, 290.

The subject of assay [2] is Heliothis virescens. In words: Example B: tobacco budworm eggs on filter paper/insect diet, mortality. Conditions: 500 ppm or less; 24-hour-old eggs dipped, diet treated; after 6 days.
Assay [3] concerns Spodoptera littoralis. In words: Example G: treated L2 larvae and insect diet, Egyptian cotton leafworm mortality. The note with it: 500 ppm or less, after 6 days. Here is the method:
A Petri dish whose bottom was covered with filter paper and which contained about 5 ml of insect diet is prepared. Five L2 larvae of the Egyptian cotton leafworm (Spodoptera littoralis) were counted into a small beaker. 200 μl of an aqueous solution of the formulated preparation to be examined were pipetted into the beaker. The treated larvae were then poured into the Petri dish, and a further 200 μl of the aqueous solution were distributed over the insect diet. The Petri dish was closed and then stored at about 25° C. in a climatized chamber. After 6 days of storage, the effect of the compound on the larvae was determined (mortality). The compounds of the following examples were active: 29, 70, 60, 159, 1005, 1040, 1042, 1044, 1045, 1046, 1047.

In assay [4] the test system is Diabrotica undecimpunctata. Kind of assay: Example C: corn rootworm eggs with maize corn, mortality. The note with it: 500 ppm or less; 4-5-day-old eggs; after 6 days.
Assay [5] has as its system Aedes aegypti. In words: Example AG: microtiter plate, yellow fever mosquito larvicidal activity. The note with it: 500 ppm or less, after 3 days.
The test system of assay [6] is Nilaparvata lugens. Kind of assay: Example A: rice leaf dip, leafhopper larvae mortality. Conditions: 500 ppm or less; L3 larvae on dipped rice plants; after 6 days. Here is the method:
The leaves of 12 rice plants having a stem length of 8 cm were dipped for 5 seconds into an aqueous solution of the formulated compound to be examined. After the solution had run off, the rice plants treated in this manner were placed into a Petri dish and populated with about 20 larvae (L3 stage) of the rice leafhopper species Nilaparvata lugens. The Petri dish was closed and then stored in a climatized chamber (16 hours of light/day, 25° C., 40–60% relative atmospheric humidity). After 6 days of storage, the mortality among the leafhopper larvae was determined. The compounds of the following examples were active: Nos. 29, 32, 42, 43, 51, 70, 84, 1002, 1004, 1005, 1040, 180, 184, 193, 197, 203, 209, 1059, 264, 265, 1066.

Assay [7] has as its system Carpocapsa pomonella. Kind of assay: Example D: dipped apples, codling moth L1 larvae mortality. The note with it: 500 ppm or less, after 14 days. Here is the method:
Apples were dipped into an aqueous solution of the formulated compound to be examined. The apples were then populated with 10 L1 larvae of the codling moth (Carpocapsa pomonella). After 14 days of storage at about 25° C., the effect of the compound on the larvae was determined (mortality). The compounds of the following examples were active: Nos. 14, 15, 17, 18, 70, 1007, 1008, 1009, 1036, 1038, 197.

As for `CSc1nc(C#CCN2CCCCCC2)cc(C(F)(F)F)n1` [Example 164], in assay [1], the “percentage of larvae immobilized (contact activity)” value (from here on “percentage of larvae immobilized”) is on record as “active”.
As for `Cc1ccc([N+](=O)[O-])cc1-c1ccc(C#CCN2CCC(C)CC2)cc1` [Example 179], the “effect on the eggs and hatched larvae (mortality)” value in assay [2] was “active”. Also, the “percentage of larvae immobilized” value in assay [1] is “active”.
Regarding `CC1CCN(CC#Cc2cc(C(F)(F)F)cc(C(F)(F)F)n2)CC1.CCCCCCCCC(=O)O` [Example 1045], the “effect on the eggs and hatched larvae (mortality)” value in assay [2] is on record as “active”. For the same compound, the “percentage of larvae immobilized” value in assay [1] was “active”. The “effect on the larvae (mortality)” value in assay [3] was “active”.
As for `CC1CCN(CC#Cc2ccc(-c3ccc(Cl)cc3Cl)s2)CC1` [Example 274], the “percentage of larvae immobilized” value in assay [1] was “active”.
For the compound `Cc1cc(C#CCN2CCC(C)CC2)sc1-c1ccc(-c2ccccc2)cc1` [Example 237], the “percentage of larvae immobilized” value in assay [1] is given as “active”.
In the case of `CC1CCN(CC#Cc2ccc(C=O)s2)CC1` [Example 298], the “effect on the eggs and hatched larvae (mortality)” value in assay [4] is reported as “active”. The “percentage of larvae immobilized” value in assay [1] is “active”.
`CC1CCN(CC#Cc2ccc(Br)c(C(F)(F)F)c2)CC1.O=C(O)/C=C\C(=O)O` [Example 1066]: the “effect on the eggs and hatched larvae (mortality)” value in assay [4] is listed as “active”. In assay [5], the larvicidal activity result is reported as “active”. In addition, the “mortality among the leafhopper larvae” value in assay [6] is on record as “active”.
With `Cc1cc(C#CCN2CCC(C)CC2)sc1-c1ccsc1` [Example 238], in assay [1], the “percentage of larvae immobilized” value is “active”.
As to `CC1CCN(CC#Cc2ccc(Cl)c(C(F)(F)F)c2)CC1` [Example 14], in assay [2], the “effect on the eggs and hatched larvae (mortality)” value is “active”. For the same compound, the “effect on the larvae (mortality)” value in assay [7] was “active”.
Consider `CN1CCN(CC#Cc2ccc(C(F)(F)F)cc2)CC1` [Example 52], for which the “percentage of larvae immobilized” value in assay [1] is on record as “active”.
For the compound `CC1(C)CCCC(C)(C)N1CC#Cc1ccccc1` [Example 84], the “mortality among the leafhopper larvae” value in assay [6] is recorded as “active”.
In the case of `CCc1ccc(C#CCN2CCC(C)CC2)cc1C(F)(F)F` [Example 264], in assay [5], the larvicidal activity entry was “active”. In assay [6], the “mortality among the leafhopper larvae” value is recorded as “active”.
With `CC1CCN(CC#Cc2ccc(C(F)(F)F)c(Cl)n2)CC1.Cl` [Example 1048], the “effect on the eggs and hatched larvae (mortality)” value in assay [2] is recorded as “active”. In assay [1], the “percentage of larvae immobilized” value is listed as “active”.
Turning to `CC1CCCCN1CC#Cc1cc(C(F)(F)F)cc(C(F)(F)F)c1` (stereo not shown) [Example 39], the “percentage of larvae immobilized” value in assay [1] is “active”.
On to `Cc1cc(C#CCN2CCC(C)CC2)cc(C(F)(F)F)c1.Cl` [Example 1069], for which the “effect on the eggs and hatched larvae (mortality)” value in assay [4] is “active”. For the same compound, the larvicidal activity entry in assay [5] was “active”.
With `CC1CCN(CC#Cc2ccc(-c3cccc(Cl)c3Cl)cc2)CC1` [Example 180], the “effect on the eggs and hatched larvae (mortality)” value in assay [2] is “active”. Further, the “mortality among the leafhopper larvae” value in assay [6] is listed as “active”.
Turning to `CC1CCN(CC#Cc2cc(C(F)(F)F)cc(C(F)(F)F)n2)CC1.O=C(O)C(F)(F)F` [Example 1046], the “effect on the eggs and hatched larvae (mortality)” value in assay [2] is given as “active”. For the same compound, the “percentage of larvae immobilized” value in assay [1] is “active”. The “effect on the larvae (mortality)” value in assay [3] was “active”.
As to `COc1c(Cl)cc(C#CCN2CCC(C)CC2)cc1Cl` [Example 17], the “effect on the eggs and hatched larvae (mortality)” value in assay [2] and in assay [4] was “active” each time. Further, the “effect on the larvae (mortality)” value in assay [7] is listed as “active”.
For the compound `CC1CCN(CC#Cc2ccc(-c3cccnc3Cl)cc2)CC1` [Example 187], the “percentage of larvae immobilized” value in assay [1] is on record as “active”.
As for `CCS(=O)(=O)O.Cc1cc(C(F)(F)F)cc(C#CCN2CCC(C)CC2)n1` [Example 1064], the “effect on the eggs and hatched larvae (mortality)” value in assay [4] was “active”. The larvicidal activity entry in assay [5] is “active”.
Regarding `CC1CCN(CC#Cc2ccc(C(F)(F)F)cc2)CC1` [Example 29], in assay [2], the “effect on the eggs and hatched larvae (mortality)” value is listed as “active”. Also, the “effect on the larvae (mortality)” value in assay [3] is given as “active”. In assay [6], the “mortality among the leafhopper larvae” value was “active”.
With `CC1CCN(CC#Cc2nc(C(F)(F)F)ccc2C(F)(F)F)CC1` [Example 165], the “percentage of larvae immobilized” value in assay [1] is reported as “active”.
On the same count and under the same terms, to `CC1CCN(CC#Cc2cccc(-c3nccs3)c2)CC1` [Example 227] belongs “active”.
Consider `Cc1ccccc1-c1ccc(C#CCN2CCC(C)CC2)cc1` [Example 183], for which the “effect on the eggs and hatched larvae (mortality)” value in assay [2] is recorded as “active”. The “percentage of larvae immobilized” value in assay [1] is “active”.
`CC1CCN(CC#Cc2ccc([N+](=O)[O-])s2)CC1` [Example 208]: the “percentage of larvae immobilized” value in assay [1] is reported as “active”.
As for `CSc1nc(C#CCN2CC(C)CC(C)C2)cc(C(F)(F)F)n1` (stereo not shown) [Example 159], the “percentage of larvae immobilized” value in assay [1] is reported as “active”. Further, the “effect on the larvae (mortality)” value in assay [3] was “active”.
Take `CC1CCN(CC#Cc2ccc(Cl)c(Cl)c2Cl)CC1` [Example 15]: in assay [2], the “effect on the eggs and hatched larvae (mortality)” value was “active”. Further, in assay [7], the “effect on the larvae (mortality)” value is “active”.
Consider `Cc1nc(C#CCN2CCC(C)CC2)cc(C(F)(F)F)n1` [Example 161], for which, in assay [1], the “percentage of larvae immobilized” value is given as “active”.
For `CC1CCN(CC#Cc2cc(C(F)(F)F)ccn2)CC1` [Example 203], the “effect on the eggs and hatched larvae (mortality)” value in assay [2] and in assay [4] was “active” each time. The “mortality among the leafhopper larvae” value in assay [6] is “active”.
In the case of `CC1CCN(CC#Cc2ccc(C(F)(F)F)cc2)CC1.Cl` [Example 1042], the “effect on the eggs and hatched larvae (mortality)” value in assay [2] and in assay [4] was “active” in each case. Besides, the “effect on the larvae (mortality)” value in assay [3] is listed as “active”.
With `CCC1CCCN(CC#Cc2cc(C(F)(F)F)cc(C(F)(F)F)c2)C1` (stereo not shown) [Example 32], the “effect on the eggs and hatched larvae (mortality)” value in assay [2] and in assay [4] was “active” each time. Besides, the “mortality among the leafhopper larvae” value in assay [6] is listed as “active”.
Take `CN1CCN(CC#Cc2cc(C(F)(F)F)cc(C(F)(F)F)c2)CC1` [Example 51]: the “mortality among the leafhopper larvae” value in assay [6] was “active”.
Still for that read-out and setting: to `FC(F)(F)c1cc(C#CCN2CCCC3CCCCC32)cc(C(F)(F)F)c1` (stereo not shown) [Example 42] belongs “active”.
For the compound `C[C@@H]1C[C@H](C)CN(CC#Cc2cc(C(F)(F)F)cc(C(F)(F)F)c2)C1.Cl` [Example 1044], in assay [2], the “effect on the eggs and hatched larvae (mortality)” value was “active”. In addition, the “effect on the larvae (mortality)” value in assay [3] is listed as “active”.
In the case of `CC1CCN(CC#Cc2ccc(-c3ccc(F)cc3)s2)CC1` [Example 230], the “effect on the eggs and hatched larvae (mortality)” value in assay [2] is “active”. In addition, the “percentage of larvae immobilized” value in assay [1] was “active”.
